Source: ChEMBL document CHEMBL6109116, “Peripherally Restricted Fused Heterocyclic Peptidomimetic Multifunctional Opioid Agonists as Novel, Potent Analgesics” (ACS Med Chem Lett, 2025)
pKi: −log10 of the molar value. The source made the active and inactive calls. The calls are words filed in the database; no cut-off is given here.

How the values were obtained:
[1] = biological target: Delta-type opioid receptor (Rattus norvegicus, UniProt P33533); test: Displacement of [3H]-DPDPE from rat cortical membrane DOR assessed as inhibition constant incubated for 2.5 hrs by Wallac Betaplate liquid scintillation counting analysis; format: cell membranes, Cortex
[2] = biological target: Kappa-type opioid receptor (Cavia porcellus, UniProt P41144); test: Displacement of [3H]U69593 from guinea pig KOR assessed as inhibition constant incubated for 2 hrs by Wallac Betaplate liquid scintillation counting analysis
Mu-type opioid receptor = Mu-type opioid receptor (Rattus norvegicus, UniProt P33535); test: Displacement of [3H]-DAMGO from rat cortical membrane MOR assessed as inhibition constant incubated for 2 hrs by Wallac Betaplate liquid scintillation counting analysis; format: cell membranes, Cortex
[3] = Toxicity in C57BL/6J mouse assessed as respiratory depression at 15 mg/kg, ip measured after 20 mins; format: organism-based; settings: in vivo
Mus musculus [4] = test: Antinociceptive activity in male C57BL/6J mouse assessed as peripheral restriction at 15 mg/kg, ip pre-treated with naloxone methiodide at 30 mg/kg, SC for 30 min by 55 degreeC warm-water tail-withdrawal assay; format: functional
Mus musculus [5] = test: Antinociceptive activity in male C57BL/6J mouse at 10 nmol, ICV administered for 8 hrs by 55 degreeC warm-water tail-withdrawal assay; format: functional, organism-based
[6] = Selectivity ratio of ED50 for antinociceptive activity in male C57BL/6J mouse at 10 mg/kg, ip measured after 10 min by 55 degreeC warm-water tail-withdrawal assay to ED50 for antinociceptive activity in male C57BL/6J mouse preadministered with compound for 10 mins followed by acetic acid administration and measured after 15 to 30 min by Acetic acid stretching assay (AcAS); format: functional
[7] = Toxicity in C57BL/6J mouse assessed as increase in ambulation at 15 mg/kg, ip measured up to 120 min; format: organism-based; settings: in vivo, 2 h
Mus musculus [8] = test: Antinociceptive activity in KOR knockout male C57BL/6J mouse model at 10 nmol, ICV administered for 10 mins by 55 degreeC warm-water tail-withdrawal assay; format: functional, organism-based
Mus musculus [9] = test: Antinociceptive activity in MOR knockout male C57BL/6J mouse model at 10 nmol, ICV administered for 10 mins by 55 degreeC warm-water tail-withdrawal assay; format: functional, organism-based
[10] = biological target: Kappa-type opioid receptor (Homo sapiens) (UniProt P41145); test: Partial agonist activity at human KOR extracted from CHO cell membrane assessed as stimulation of [35S]GTPgammaS binding at 1 to 10 uM incubated for 60 mins by liquid scintillation counting assay; format: functional, cell membranes; settings: filed as partial agonist, dose 1-10 µM
[11] = Toxicity in C57BL/6J mouse assessed as effect on locomotor activity at 15 mg/kg, ip measured up to 120 min; format: organism-based; settings: in vivo, 2 h
Mus musculus [12] = test: Antinociceptive activity in male C57BL/6J mouse assessed as peripheral restriction at 15 mg/kg, ip pre-treated with naloxone methiodide at 30 nmol, ICV for 30 min by 55 degreeC warm-water tail-withdrawal assay; format: functional
[13] = biological target: Delta-type opioid receptor (Mus musculus) (UniProt P32300); test: Partial agonist activity at mouse DOR extracted from CHO cell membrane assessed as stimulation of [35S]GTPgammaS binding at 1 to 10 uM incubated for 60 mins by liquid scintillation counting assay; format: functional, cell membranes; settings: filed as partial agonist, dose 1-10 µM
[14] = biological target: Mu-type opioid receptor (Rattus norvegicus) (UniProt P33535); test: Partial agonist activity at rat MOR extracted from CHO cell membrane assessed as stimulation of [35S]GTPgammaS binding at 10 uM incubated for 60 mins by liquid scintillation counting assay; format: functional, cell membranes; settings: filed as partial agonist
Mus musculus [15] = test: Antinociceptive activity in wild type male C57BL/6J mouse model at 10 nmol, ICV preadministered with naltrindole for 20 mins followed by compound administration for 10 mins; format: functional, organism-based
Mus musculus [16] = species on record: Mus musculus; test: Antinociceptive activity in male C57BL/6J mouse measured after 10 min by 55 degreeC warm-water tail-withdrawal assay; format: functional
Mus musculus [17] = test: Antinociceptive activity in male C57BL/6J mouse assessed as peripheral restriction at 15 mg/kg, ip by 55 degreeC warm-water tail-withdrawal assay; format: functional
Mus musculus [18] = test: Antinociceptive activity in male C57BL/6J mouse preadministered with compound for 10 mins followed by acetic acid administration and measured after 15 to 30 min by Acetic acid stretching assay (AcAS); format: functional; settings: time 25-40 min
Mus musculus [19] = test: Antinociceptive activity in male C57BL/6J mouse at 15 mg/kg, po by 55 degreeC warm-water tail-withdrawal assay; format: functional, organism-based; settings: time <= 60.0 min
[20] = Toxicity in C57BL/6J mouse assessed as increase in ambulation at 30 mg/kg, ip measured up to 120 min; format: organism-based; settings: in vivo, 2 h
Mus musculus [21] = test: Antinociceptive activity in male C57BL/6J mouse assessed as peripheral restriction at 30 mg/kg, ip by 55 degreeC warm-water tail-withdrawal assay; format: functional
[22] = biological target: Mu-type opioid receptor (Rattus norvegicus) (UniProt P33535); test: Partial agonist activity at rat MOR extracted from CHO cell membrane assessed as stimulation of [35S]GTPgammaS binding at 1 to 10 uM incubated for 60 mins by liquid scintillation counting assay; format: functional, cell membranes; settings: dose 1-10 µM
Mus musculus [23] = test: Antinociceptive activity in male C57BL/6J mouse assessed as peripheral restriction at 30 mg/kg, ip pre-treated with naloxone methiodide at 30 nmol, ICV for 30 min by 55 degreeC warm-water tail-withdrawal assay; format: functional
[24] = Toxicity in C57BL/6J mouse assessed as effect on locomotor activity at 30 mg/kg, ip measured up to 120 min; format: organism-based; settings: in vivo, 2 h
Mus musculus [25] = test: Antinociceptive activity in male C57BL/6J mouse at 30 mg/kg, po by 55 degreeC warm-water tail-withdrawal assay; format: functional, organism-based; settings: time <= 60.0 min
Mus musculus [26] = test: Antinociceptive activity in male C57BL/6J mouse assessed as peripheral restriction at 30 mg/kg, ip pre-treated with naloxone methiodide at 30 mg/kg, SC for 30 min by 55 degreeC warm-water tail-withdrawal assay; format: functional
[27] = Toxicity in C57BL/6J mouse assessed as respiratory depression at 30 mg/kg, ip measured after 20 mins; format: organism-based; settings: in vivo
[28] = biological target: Delta-type opioid receptor (Mus musculus) (UniProt P32300); test: Agonist activity at mouse DOR extracted from CHO cell membrane assessed as stimulation of [35S]GTPgammaS binding at 1 to 10 uM incubated for 60 mins by liquid scintillation counting assay; format: functional, cell membranes; settings: filed as agonist, dose 1-10 µM
Mus musculus [29] = test: Antinociceptive activity in male C57BL/6J mouse at 10 mg/kg, ip measured after 10 min by 55 degreeC warm-water tail-withdrawal assay; format: functional, organism-based
[30] = Toxicity in male C57BL/6J mouse assessed as lethality up to 30 mg/kg, ip measured after 10 min; format: organism-based; settings: in vivo
Mus musculus [31] = species on record: Mus musculus; test: Acute antinociceptive activity in male C57BL/6J mouse measured after 30 min by 55 degreeC warm-water tail-withdrawal assay; settings: 0.5 h

Sequence of Kappa-type opioid receptor (Homo sapiens) (P41145 whole entry): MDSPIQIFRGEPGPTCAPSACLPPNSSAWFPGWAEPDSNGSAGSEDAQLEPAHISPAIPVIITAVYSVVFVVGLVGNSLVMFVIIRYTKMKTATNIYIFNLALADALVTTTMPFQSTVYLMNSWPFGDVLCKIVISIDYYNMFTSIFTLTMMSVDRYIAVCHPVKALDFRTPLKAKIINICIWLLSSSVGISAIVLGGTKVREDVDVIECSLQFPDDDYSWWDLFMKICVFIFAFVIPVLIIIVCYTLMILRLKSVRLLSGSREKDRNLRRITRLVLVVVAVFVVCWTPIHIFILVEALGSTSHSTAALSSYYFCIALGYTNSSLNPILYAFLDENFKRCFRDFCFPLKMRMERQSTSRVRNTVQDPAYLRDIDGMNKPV
Sequence of Delta-type opioid receptor (P33533 whole entry): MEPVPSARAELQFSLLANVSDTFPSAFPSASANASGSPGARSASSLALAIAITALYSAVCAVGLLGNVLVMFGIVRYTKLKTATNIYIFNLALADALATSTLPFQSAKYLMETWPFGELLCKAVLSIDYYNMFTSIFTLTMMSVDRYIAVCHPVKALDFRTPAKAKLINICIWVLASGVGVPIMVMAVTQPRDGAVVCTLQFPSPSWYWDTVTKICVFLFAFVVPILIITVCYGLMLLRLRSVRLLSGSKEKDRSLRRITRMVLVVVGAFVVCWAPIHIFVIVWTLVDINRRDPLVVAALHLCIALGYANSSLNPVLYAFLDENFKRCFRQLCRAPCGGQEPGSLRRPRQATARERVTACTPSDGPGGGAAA
Sequence of Kappa-type opioid receptor (P41144 whole entry): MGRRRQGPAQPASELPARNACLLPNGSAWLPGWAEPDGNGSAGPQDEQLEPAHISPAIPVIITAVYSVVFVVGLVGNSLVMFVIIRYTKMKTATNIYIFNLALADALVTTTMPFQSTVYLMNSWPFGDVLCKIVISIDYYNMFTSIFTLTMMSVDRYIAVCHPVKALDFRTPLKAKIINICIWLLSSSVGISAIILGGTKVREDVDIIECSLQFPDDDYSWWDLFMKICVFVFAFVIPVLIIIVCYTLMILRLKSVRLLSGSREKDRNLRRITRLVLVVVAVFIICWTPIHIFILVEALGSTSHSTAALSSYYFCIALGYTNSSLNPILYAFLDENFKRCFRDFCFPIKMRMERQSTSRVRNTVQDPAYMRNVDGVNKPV
Sequence of Delta-type opioid receptor (Mus musculus) (P32300 whole entry): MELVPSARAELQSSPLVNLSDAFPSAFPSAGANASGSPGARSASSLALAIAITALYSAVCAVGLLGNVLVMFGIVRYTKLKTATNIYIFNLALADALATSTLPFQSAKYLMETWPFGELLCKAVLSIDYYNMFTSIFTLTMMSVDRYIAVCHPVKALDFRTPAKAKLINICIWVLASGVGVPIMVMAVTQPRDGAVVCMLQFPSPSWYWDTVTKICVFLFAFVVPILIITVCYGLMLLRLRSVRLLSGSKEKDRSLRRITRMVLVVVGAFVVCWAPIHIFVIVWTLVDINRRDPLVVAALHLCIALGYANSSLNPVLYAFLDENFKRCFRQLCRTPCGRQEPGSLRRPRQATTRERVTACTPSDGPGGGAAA
Sequence of Mu-type opioid receptor (Rattus norvegicus) (P33535 whole entry): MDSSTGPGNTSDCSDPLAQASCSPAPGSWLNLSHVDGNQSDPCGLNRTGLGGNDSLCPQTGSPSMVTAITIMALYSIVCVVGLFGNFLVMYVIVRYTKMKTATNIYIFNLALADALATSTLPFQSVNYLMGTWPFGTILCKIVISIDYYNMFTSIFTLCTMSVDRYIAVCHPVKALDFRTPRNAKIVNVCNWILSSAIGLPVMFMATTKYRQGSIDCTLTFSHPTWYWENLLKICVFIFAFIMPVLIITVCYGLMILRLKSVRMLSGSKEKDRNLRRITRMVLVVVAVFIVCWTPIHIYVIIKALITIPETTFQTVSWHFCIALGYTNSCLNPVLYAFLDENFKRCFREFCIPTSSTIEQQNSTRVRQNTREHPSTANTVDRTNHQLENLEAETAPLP
Sequence of Mu-type opioid receptor (P33535 whole entry): as above

CC(C)[C@H]1CN=C2C=C3N4C[C@H](O)C[C@H]4CN3[C@@H](Cc3ccc(O)cc3)CN21
pKi [1]: 7.47
pKi [2]: 7.80
pKi (Mu-type opioid receptor): 6.60

CN1CCN(CCN2C(=N)N([C@@H](CCCNC(=N)N)CN3C(=N)NC[C@@H]3Cc3ccc(O)cc3)C[C@@H]2Cc2ccc(O)cc2)CC1
pKi [1]: 7.40
Activity [3]: Non-toxic
Activity (Mus musculus [4]): 2.5%
Activity (Mus musculus [5]): Active; Comparable To Morphine And U50,491
Ratio ED50 [6]: 0.78
Activity [7]: Non-toxic
Activity (Mus musculus [8]): inactive
Activity (Mus musculus [9]): inactive
pKi [2]: 7.06
Activity [10]: Active
Activity [11]: Non-toxic
Activity (Mus musculus [12]): 10.1%
Activity [13]: Active; Weak Partial Agonism Observed
pKi (Mu-type opioid receptor): 6.71
Activity [14]: Active
Activity (Mus musculus [15]): inactive
ED50 (Mus musculus [16]): 3.9 mg/kg
Activity (Mus musculus [17]): 89.7%
ED50 (Mus musculus [18]): 4.97 mg/kg
Activity (Mus musculus [19]): Time-dependent-effect

CC(C)(C)c1ccc(S(=O)(=O)NCCN2C(=N)N([C@@H](CCCNC(=N)N)CN3C(=N)NC[C@@H]3CCCNC(=N)N)C[C@@H]2CCCNC(=N)N)cc1
pKi [1]: 8.15
pKi [2]: 7.03
pKi (Mu-type opioid receptor): 6.47

CC(C)[C@H]1CN=C2C=C3N(CCc4ccccc4)CC[C@H](N(C)C)CN3[C@@H](Cc3ccc(O)cc3)CN21
pKi [1]: 7.70
Activity [20]: Non-toxic
Activity (Mus musculus [5]): Active; Comparable To Morphine And U50,489
Activity (Mus musculus [21]): 87.9%
Activity [22]: Not active; No Significant Activity
Ratio ED50 [6]: 20.95
Activity (Mus musculus [8]): inactive
Activity (Mus musculus [9]): inactive
Activity (Mus musculus [23]): 59.1%
pKi [2]: 7.60
Activity [10]: Active
Activity [24]: Non-toxic
Activity (Mus musculus [25]): Time-dependent-effect
Activity (Mus musculus [26]): 3.5%
Activity [13]: Active; Weak Partial Agonism Observed
pKi (Mu-type opioid receptor): 6.37
Activity (Mus musculus [15]): inactive
ED50 (Mus musculus [16]): 14 mg/kg
Activity [27]: Non-toxic
ED50 (Mus musculus [18]): 0.67 mg/kg

CC(C)C[C@H]1CN2C(=CC3=NC[C@H](CN(C)C)N3C[C@@H]2Cc2ccc(O)cc2)N1CCc1ccccc1
pKi [1]: 8.30
Activity [28]: Active
Activity (Mus musculus [29]): Active; Minimal Antinociception Observed
Activity (Mus musculus [5]): Active; Comparable To Morphine And U50,490
Activity [22]: Not active; No Significant Activity
Activity (Mus musculus [8]): inactive
Activity (Mus musculus [9]): inactive
pKi [2]: 7.33
Activity [10]: Active
pKi (Mu-type opioid receptor): 7.00
Activity [30]: Toxic
Activity (Mus musculus [15]): inactive

CC(C)[C@H]1CN=C2C=C3N(CCc4ccccc4)[C@@H](CCN(C)C)CN3[C@@H](Cc3ccc(O)cc3)CN21
pKi [1]: 8.10
pKi [2]: 7.70
pKi (Mu-type opioid receptor): 7.47

CC(C)C[C@H]1CN2C(=CC3=NC[C@H](CCN(C)C)N3C[C@@H]2Cc2ccc(O)cc2)N1CCc1ccccc1
pKi [1]: 8.30
Activity [3]: Non-toxic
Activity (Mus musculus [4]): 1.2%
Activity (Mus musculus [5]): Active; Comparable To Morphine And U50,488
Activity [22]: Not active; No Significant Activity
Ratio ED50 [6]: 10.73
Activity [7]: Non-toxic
Activity (Mus musculus [8]): inactive
Activity (Mus musculus [9]): inactive
pKi [2]: 7.62
Activity [11]: Non-toxic
Activity (Mus musculus [12]): 42%
Activity [13]: Active; Weak Partial Agonism Observed
pKi (Mu-type opioid receptor): 6.67
Activity (Mus musculus [15]): inactive
ED50 (Mus musculus [16]): 2.19 mg/kg
Activity (Mus musculus [17]): 96.3%
ED50 (Mus musculus [18]): 0.2 mg/kg
Activity (Mus musculus [19]): Time-dependent-effect

CC(C)C[C@H]1CN([C@@H](Cc2ccc(O)cc2)CN2C(=N)NC[C@@H]2CCCNC(=N)N)C(=N)N1CCNS(=O)(=O)c1ccc(C(C)(C)C)cc1
pKi [1]: 9.00
pKi [2]: 7.32
pKi (Mu-type opioid receptor): 6.92

CC(C)C[C@H]1CN2C(=CC3=NC[C@@H](C(C)C)N3C[C@H]2Cc2ccc(O)cc2)N1CCc1ccccc1
pKi [1]: 9.00
pKi [2]: 7.37

CC(C)C[C@H]1CN=C2C=C3N(CCN4CCOCC4)[C@@H](Cc4ccc(O)cc4)CN3[C@@H](Cc3ccc(O)cc3)CN21
pKi [1]: 7.38
pKi [2]: 7.70
pKi (Mu-type opioid receptor): 6.97

CN1CC[C@]23c4c5ccc(O)c4O[C@H]2[C@@H](O)C=C[C@H]3[C@H]1C5 [MORPHINE]
ED50 (Mus musculus [31]): 3.37 mg/kg
Ratio ED50 [6]: 3.75
ED50 (Mus musculus [18]): 0.9 mg/kg

CC(C)C[C@H]1CN=C2C=C3N4CCC[C@H]4CN3[C@@H](Cc3ccc(O)cc3)CN21
pKi [1]: 8.00
pKi [2]: 7.40
pKi (Mu-type opioid receptor): 6.77

CC(C)(C)c1ccc(S(=O)(=O)NCCN2C(=N)N([C@@H](Cc3ccc(O)cc3)CN3C(=N)NC[C@@H]3CCCNC(=N)N)C[C@@H]2CCCNC(=N)N)cc1
pKi [1]: 7.08
pKi [2]: 7.31
pKi (Mu-type opioid receptor): 6.34

CC(C)C[C@H]1CN2C(=CC3=NC[C@H](CC(C)C)N3C[C@@H]2Cc2ccc(O)cc2)N1CCN1CCOCC1
pKi [1]: 7.80
pKi [2]: 7.82
pKi (Mu-type opioid receptor): 6.80

CC(C)[C@H]1CN=C2C=C3N(CCN4CCOCC4)[C@@H](Cc4ccc(O)cc4)CN3[C@@H](Cc3ccc(O)cc3)CN21
pKi [1]: 7.96
pKi [2]: 7.39
pKi (Mu-type opioid receptor): 7.29

CC(C)[C@H]1CN=C2C=C3N(CCc4ccccc4)[C@@H](CN(C)C)CN3[C@@H](Cc3ccc(O)cc3)CN21
pKi [1]: 8.40
pKi [2]: 7.43
pKi (Mu-type opioid receptor): 7.59
